These results are taken from patent publication US8188101B2 (AstraZeneca AB, priority 2008, dated 2012).

pIC50: −log10 of the molar value.

This experiment relates to Aβ42 release. The experiment in a line: Aβ release in cells stably expressing APPswe, Meso Scale Discovery electrochemiluminescence assay. It counts as cell-based, Human. The following applies: Homo sapiens, SH-SY5Y, HEK or SH-SY5Y cells stably expressing APPswe, 4-6 hours incubation with test compound. The protocol: The level of activity of the compounds on Aβ release was tested using the following method:
Compounds were diluted in 100% DMSO and stored at […] prior to use. Human Embryonic Kidney (HEK) or Human Neuroblastoma (SH-SY5Y) cell lines stably expressing APP with the Swedish mutation (APPswe) were cultured using Dulbecco's Modified Eagles medium (DMEM) supplied with […] glucose, Na-pyruvate and GlutaMAX with 10% FBS, 100 U/ml penicillin-streptomycin (PEST) respectively, 1× non-essential amino acids (NEAA), […] Hepes, 100 μg/ml Zeocine. Cells at about 80% confluence were washed with PBS, detached from culture flasks using 1× Trypsin/EDTA diluted in PBS, re-suspended in cell media and plated in 384-well poly-d-lysine coated cell culture plates at about 10000-15000 cells/well, in 25 μL cell media. Optionally, cryo-preserved cells (frozen and stored at −140° C. in 90% cell media and 10% DMSO) were thawed, washed and plated as above. Next the cells were incubated for 15-24 h at 37° C. and 5% CO2, after which cell medium was changed. Fresh medium containing test compound diluted ×200 from prepared compound plate was added to the cells before further incubation for 4-6 hours at 37° C. and 5% CO2. After incubation with test compound the amount of Aβ peptides, including Aβ42, Aβ40, Aβ39, Aβ38 and Aβ37, secreted to the cell medium was analyzed using the electrochemiluminescence assay technology from Meso Scale Discovery Technology, in combination with specific antibodies raised against the different Aβ peptides. Potential cytotoxic effects of the compounds were usually assayed by measuring the ATP content (ViaLight) from cell lysate.
Usually pIC50 stands for the negative decadic logarithm of the IC50, by convention in mol/L. With `COc1cccc(Cc2nc(Nc3ccc(-n4ccnc4C)cc3)nc3c2CN(CCO)CC3)c1` [Example 57, 2-(4-(3-Methoxybenzyl)-2-(4-(2-methyl-1H-imidazol-1-yl)phenylamino)-7,8-dihydropyrido[4,3-d]pyrimidin-6(5H)-yl)ethanol], the pIC50 was 6.40. `CC(=O)N1CCc2nc(Nc3ccc(-n4ccnc4C)cc3)nc(CCC3CCCCC3)c2C1` [Example 58, 1-(4-(2-Cyclohexylethyl)-2-(4-(2-methyl-1H-imidazol-1-yl)phenylamino)-7,8-dihydropyrido[4,3-d]pyrimidin-6(5H)-yl)ethanone]: the pIC50 is 6.70. Consider `CC(=O)N1CCc2nc(Nc3ccc(-n4ccnc4C)cc3)nc(Cc3ccc(C)cc3)c2C1` [Example 59, 1-(2-(4-(2-Methyl-1H-imidazol-1-yl)phenylamino)-4-(4-methylbenzyl)-7,8-dihydropyrido[4,3-d]pyrimidin-6(5H)-yl)ethanone], for which the pIC50 is 6.40. Then `CC(=O)N1CCc2nc(Nc3ccc(-n4ccnc4C)cc3)nc(CCc3cccc(F)c3)c2C1` [Example 60, 1-(4-(3-Fluorophenethyl)-2-(4-(2-methyl-1H-imidazol-1-yl)phenylamino)-7,8-dihydropyrido[4,3-d]pyrimidin-6(5H)-yl)ethanone], with 6.30; and `Cc1nccn1-c1ccc(Nc2nc3c(c(CC4CCOCC4)n2)CN(C)CC3)cc1` [Example 61, 6-Methyl-N-(4-(2-methyl-1H-imidazol-1-yl)phenyl)-4-((tetrahydro-2H-pyran-4-yl)methyl)-5,6,7,8-tetrahydropyrido[4,3-d]pyrimidin-2-amine], with 5.00.

With `Cc1nccn1-c1ccc(Nc2nc3c(c(CC4CCOCC4)n2)CN(CCO)CC3)cc1` [Example 62, 2-(2-(4-(2-Methyl-1H-imidazol-1-yl)phenylamino)-4-((tetrahydro-2H-pyran-4-yl)methyl)-7,8-dihydropyrido[4,3-d]pyrimidin-6(5H)-yl)ethanol], the pIC50 is 5.00. For `CC(=O)N1CCc2nc(Nc3ccc(-n4ccnc4C)cc3)nc(CC3CCOCC3)c2C1` [Example 63, 1-(2-(4-(2-Methyl-1H-imidazol-1-yl)phenylamino)-4-((tetrahydro-2H-pyran-4-yl)methyl)-7,8-dihydropyrido[4,3-d]pyrimidin-6(5H)-yl)ethanone], the pIC50 was 4.30.

On to `Cc1nccn1-c1ccc(Nc2nc3c(c(Cc4ccc(F)cc4)n2)C[S+]([O-])CC3)cc1` (stereo not shown) [Example 64, 4-(4-Fluorobenzyl)-N-[4-(2-methyl-1H-imidazol-1-yl)phenyl]-7,8-dihydro-5H-thiopyrano[4,3-d]pyrimidin-2-amine 6-oxide], for which the negative-log IC50 (pIC50) is 6.00.

As to `COC(c1ccccc1)c1nc(Nc2ccc(-n3ccnc3C)cc2)nc2c1COCC2` (stereo not shown) [Example 65, 4-(Methoxy(phenyl)methyl)-N-(4-(2-methyl-1H-imidazol-1-yl)phenyl)-7,8-dihydro-5H-pyrano[4,3-d]pyrimidin-2-amine], the pIC50 was 6.50.

For the compound `COC(c1ccccc1)c1nc(Nc2ccc(-n3ccnc3C)cc2)nc2c1CS(=O)(=O)CC2` (stereo not shown) [Example 66, 4-[Methoxy(phenyl)methyl]-N-[4-(2-methyl-1H-imidazol-1-yl)phenyl]-7,8-dihydro-5H-thiopyrano[4,3-d]pyrimidin-2-amine 6,6-dioxide], the pIC50 was 5.90. Regarding `Cc1nccn1-c1ccc(Nc2nc3c(c(CC4CCOCC4)n2)COCC3)cc1` [Example 67, N-(4-(2-Methyl-1H-imidazol-1-yl)phenyl)-4-((tetrahydro-2H-pyran-4-yl)methyl)-7,8-dihydro-5H-pyrano[4,3-d]pyrimidin-2-amine], the negative-log IC50 (pIC50) is 5.00.

`COc1cc(Nc2nc3c(c(Cc4ccccc4)n2)CN(C)CC3)ccc1-n1cnc(C)c1` [Example 68, 4-Benzyl-N-(3-methoxy-4-(4-methyl-1H-imidazol-1-yl)phenyl)-6-methyl-5,6,7,8-tetrahydropyrido[4,3-d]pyrimidin-2-amine]: the pIC50 was 7.70. For the compound `Cc1nccn1-c1ccc(Nc2nc3c(c(NC4CCCCC4)n2)CN(C)CC3)cc1` [Example 69, N4-Cyclohexyl-6-methyl-N2-(4-(2-methyl-1H-imidazol-1-yl)phenyl)-5,6,7,8-tetrahydropyrido[4,3-d]pyrimidine-2,4-diamine], the pIC50 is 6.40. The same measure for `Cc1nccn1-c1ccc(N(C)c2nc3c(c(N4c5ccccc5C[C@H]4CO)n2)CN(C)CC3)cc1` [Example 72]: 6.20; for `Cc1nccn1-c1ccc(Nc2nc3c(c(NC[C@@H]4CCCO4)n2)CN(C)CC3)cc1` [Example 73, (S)-6-Methyl-N2-(4-(2-methyl-1H-imidazol-1-yl)phenyl)-N4-((tetrahydrofuran-2-yl)methyl)-5,6,7,8-tetrahydropyrido[4,3-d]pyrimidine-2,4-diamine]: 6.10.

`Cc1nccn1-c1ccc(Nc2nc3c(c(NC[C@H]4CCCO4)n2)CN(C)CC3)cc1` [Example 74, (R)-6-Methyl-N2-(4-(2-methyl-1H-imidazol-1-yl)phenyl)-N4-((tetrahydrofuran-2-yl)methyl)-5,6,7,8-tetrahydropyrido[4,3-d]pyrimidine-2,4-diamine]: the pIC50 was 6.00. With `COc1cc(Nc2nc3c(c(Cc4ccccc4)n2)CN(CCO)CC3)ccc1-n1cnc(C)c1` [Example 75, 2-(4-Benzyl-2-(3-methoxy-4-(4-methyl-1H-imidazol-1-yl)phenylamino)-7,8-dihydropyrido[4,3-d]pyrimidin-6(5H)-yl)ethanol], the pIC50 was 7.60. The same measure for `Cc1nccn1-c1ccc(Nc2nc3c(c(N(CCO)Cc4ccccc4)n2)CN(C)CC3)cc1` [Example 76, 2-(Benzyl(6-methyl-2-(4-(2-methyl-1H-imidazol-1-yl)phenylamino)-5,6,7,8-tetrahydropyrido[4,3-d]pyrimidin-4-yl)amino)ethanol]: 6.30; for `CCN(CC1CCCO1)c1nc(Nc2ccc(-n3ccnc3C)cc2)nc2c1CN(CCO)CC2` (stereo not shown) [Example 77, 2-(4-(Ethyl((tetrahydrofuran-2-yl)methyl)amino)-2-(4-(2-methyl-1H-imidazol-1-yl)phenylamino)-7,8-dihydropyrido[4,3-d]pyrimidin-6(5H)-yl)ethanol]: 6.20; for `Cc1nccn1-c1ccc(Nc2nc3c(c(N(CCC#N)C4CC4)n2)CN(C)CC3)cc1` [Example 78, 3-(Cyclopropyl(6-methyl-2-(4-(2-methyl-1H-imidazol-1-yl)phenylamino)-5,6,7,8-tetrahydropyrido[4,3-d]pyrimidin-4-yl)amino)propanenitrile]: 6.00. `Cc1nccn1-c1ccc(Nc2nc3c(c(NCC4CCOCC4)n2)CN(C)CC3)cc1` [Example 79, 6-Methyl-N2-(4-(2-methyl-1H-imidazol-1-yl)phenyl)-N4-((tetrahydro-2H-pyran-4-yl)methyl)-5,6,7,8-tetrahydropyrido[4,3-d]pyrimidine-2,4-diamine]: the pIC50 was 5.90. Turning to `OCCN1CCc2nc(Nc3ccc(-c4cnco4)cc3)nc(NC[C@H]3CCCO3)c2C1` [Example 80, (R)-2-(2-(4-(Oxazol-5-yl)phenylamino)-4-((tetrahydrofuran-2-yl)methylamino)-7,8-dihydropyrido[4,3-d]pyrimidin-6(5H)-yl)ethanol], the pIC50 is 6.80. On to `CCN(CC1CCCO1)c1nc(Nc2ccc(-c3cnco3)cc2)nc2c1CN(CCO)CC2` (stereo not shown) [Example 81, 2-(4-(Ethyl((tetrahydrofuran-2-yl)methyl)amino)-2-(4-(oxazol-5-yl)phenylamino)-7,8-dihydropyrido[4,3-d]pyrimidin-6(5H)-yl)ethanol], for which the pIC50 was 6.60. As to `CCN(CC1CCCO1)c1nc(Nc2ccc(-c3cnco3)cc2)nc2c1CN(C)CC2` (stereo not shown) [Example 82, N4-Ethyl-6-methyl-N2-(4-(oxazol-5-yl)phenyl)-N4-((tetrahydrofuran-2-yl)methyl)-5,6,7,8-tetrahydropyrido[4,3-d]pyrimidine-2,4-diamine], the pIC50 was 6.50.

`CN1CCc2nc(Nc3ccc(-c4cnco4)cc3)nc(NC[C@@H]3CCCO3)c2C1` [Example 83, (S)-6-Methyl-N2-(4-(oxazol-5-yl)phenyl)-N4-((tetrahydrofuran-2-yl)methyl)-5,6,7,8-tetrahydropyrido[4,3-d]pyrimidine-2,4-diamine]: the pIC50 is 6.80. `CN1CCc2nc(Nc3ccc(-c4cnco4)cc3)nc(NC[C@H]3CCCO3)c2C1` [Example 84, (R)-6-Methyl-N2-(4-(oxazol-5-yl)phenyl)-N4-((tetrahydrofuran-2-yl)methyl)-5,6,7,8-tetrahydropyrido[4,3-d]pyrimidine-2,4-diamine]: the negative logarithm of the IC50 (pIC50) was 6.80. As to `CN1CCc2nc(Nc3ccc(-c4cnco4)cc3)nc(NCC3CCOCC3)c2C1` [Example 85, 6-Methyl-N2-(4-(oxazol-5-yl)phenyl)-N4-((tetrahydro-2H-pyran-4-yl)methyl)-5,6,7,8-tetrahydropyrido[4,3-d]pyrimidine-2,4-diamine], the pIC50 is 6.60.

As to `OCCN1CCc2nc(Nc3ccc(-c4cnco4)cc3)nc(NCC3CCOCC3)c2C1` [Example 86, 2-(2-(4-(Oxazol-5-yl)phenylamino)-4-((tetrahydro-2H-pyran-4-yl)methylamino)-7,8-dihydropyrido[4,3-d]pyrimidin-6(5H)-yl)ethanol], the pIC50 is 6.30.
